Laboratory results taken from patent US9365541B2, “Compounds for use in the treatment of parasitic diseases” (IRBM—SCIENCE PARK S.P.A., priority 2012, dated 2016).

Columns and labels:
[1] = molecular target: T1, human HDAC1 (Homo sapiens, UniProt Q13547); test: Homo sapiens HDAC1 inhibition assay (Fluor-de-Lys, enzymatic); format: biochemical; conditions: human HDAC enzymatic assay; read-out: hHDAC IC50
T1 construct: made in house; host or cells: HeLa (ATCC CCL-2), mammalian cells
In short: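 Product developed with trypsin developer containing 2 μM TSA to stop the reaction; fluorescence measures deacetylase activity, inversely related to inhibition.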

[2] = test system: Plasmodium falciparum 3D7; test: P. falciparum growth inhibition assay (Pf-LDH); format: cell-based; conditions: Plasmodium falciparum, Erythrocyte; P. falciparum 3D7 infected erythrocytes, 72 h incubation, PfLDH readout
In short: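 P. falciparum 3D7 (chloroquine-sensitive) at 0.25% parasitemia and 2% hematocrit was incubated with compound for 72 h at 37° C under 4% CO2/3% O2/93% N2. After freeze-thaw, PfLDH activity was read at 650 nm with lactate/APAD/NBT/diaphorase mix (pH 8.0).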

T1 sequence (Q13547 whole entry): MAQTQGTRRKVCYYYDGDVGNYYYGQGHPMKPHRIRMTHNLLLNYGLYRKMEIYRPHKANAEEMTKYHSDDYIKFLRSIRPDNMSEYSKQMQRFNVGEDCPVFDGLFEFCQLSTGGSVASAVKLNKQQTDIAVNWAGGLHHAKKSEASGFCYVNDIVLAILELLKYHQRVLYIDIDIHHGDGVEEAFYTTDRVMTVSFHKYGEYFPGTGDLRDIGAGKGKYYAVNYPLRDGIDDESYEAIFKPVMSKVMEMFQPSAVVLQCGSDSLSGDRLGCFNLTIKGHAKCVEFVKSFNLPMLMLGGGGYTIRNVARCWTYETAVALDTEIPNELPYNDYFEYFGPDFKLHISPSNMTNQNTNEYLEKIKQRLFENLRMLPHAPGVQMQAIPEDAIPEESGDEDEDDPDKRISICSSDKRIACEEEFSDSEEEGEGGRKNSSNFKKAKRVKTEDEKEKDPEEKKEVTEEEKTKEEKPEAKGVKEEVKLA

Row | IC50 [1] | EC50 [2] | SMILES
1 | > 5 µM | > 5 µM | CNC(=O)CCCCC[C@H](NC(=O)Cn1ccnn1)c1ncc(-c2ccc3[nH]ncc3c2)[nH]1 [Entry 157, (S)-7-(2-(1H-1,2,3-triazol-1-yl)acetamido)-7-(5-(1H-indazol-5-yl)-1H-imidazol-2-yl)-N-methyl-heptanamide]
2 | 1 to 5 µM | < 1 µM | CNC(=O)CCCCC[C@H](NC(=O)c1cncs1)c1ncc(-c2ccc(-c3ccn(C)n3)cc2)[nH]1 [Entry 158]
3 | > 5 µM | > 5 µM | CNC(=O)CCCCC[C@H](NC(=O)c1cncs1)c1ncc(-c2cnc3[nH]ncc3c2)[nH]1 [Entry 159, (S)-N-(1-(5-(1H-pyrazolo[3,4-b]pyridin-5-yl)-1H-imidazol-2-yl)-7-(methylamino)-7-oxoheptyl)thiazole-5-carboxamide]
4 | 1 to 5 µM | < 1 µM | CNC(=O)CCCCC[C@H](NC(=O)c1cncs1)c1ncc(-c2ccc3[nH]ncc3c2)[nH]1 [Entry 160, (S)-N-(1-(5-(1H-indazol-5-yl)-1H-imidazol-2-yl)-7-(methylamino)-7-oxoheptyl)thiazole-5-carboxamide]
5 | 1 to 5 µM | 1 to 5 µM | CNC(=O)CCCCC[C@H](NC(=O)c1cncs1)c1ncc(-c2ccc3sccc3c2)[nH]1 [Entry 161, (S)-N-(1-(5-(benzo[b]thiophen-5-yl)-1H-imidazol-2-yl)-7-(methylamino)-7-oxoheptyl)thiazole-5-carboxamide]
6 | > 5 µM | > 5 µM | CNC(=O)CCCCC[C@H](NC(=O)C1CCN(C)CC1)c1ncc(-c2ccc(-n3cccn3)cc2)[nH]1 [Entry 162]
7 | 1 to 5 µM | 1 to 5 µM | CNC(=O)CCCCC[C@H](NC(=O)Cc1cnc2ccccn12)c1ncc(-c2ccc(-n3cccn3)cc2)[nH]1 [Entry 163, (S)-7-(5-(4-(1H-pyrazol-1-yl)phenyl)-1H-imidazol-2-yl)-7-(2-(imidazo[1,2-a]pyridin-3-yl)acetamido)-N-methylheptanamide]
8 | > 5 µM | > 5 µM | CNC(=O)CCCCC[C@H](NC(=O)c1cn2ccsc2n1)c1ncc(-c2ccc3ccccc3c2)[nH]1 [Entry 164, (S)-N-(7-(methylamino)-1-(5-(naphthalen-2-yl)-1H-imidazol-2-yl)-7-oxo-heptyl)imidazo[2,1-b]thiazole-6-carboxamide]
9 | 1 to 5 µM | > 5 µM | CNC(=O)CCCCC[C@H](NC(=O)CN1CCN(C)CC1)c1ncc(-c2ccc3ccccc3c2)[nH]1 [Entry 165, (S)-N-methyl-7-(2-(4-methylpiperazin-1-yl)acetamido)-7-(5-(naphthalen-2-yl)-1H-imidazol-2-yl)heptanamide]
10 | 1 to 5 µM | 1 to 5 µM | CNC(=O)CCCCC[C@H](NC(=O)C1CNC(=O)C1)c1ncc(-c2ccc3ccccc3c2)[nH]1 (stereo partly drawn) [Entry 166, N-((S)-7-(methylamino)-1-(5-(naphthalen-2-yl)-1H-imidazol-2-yl)-7-oxoheptyl)-5-oxopyrrolidine-3-carboxamide]
11 | 1 to 5 µM | 1 to 5 µM | CNC(=O)CCCCC[C@H](NC(=O)CCc1nnc(C)[nH]1)c1ncc(-c2ccc3ccncc3c2)[nH]1 [Entry 167]
12 | 1 to 5 µM | 1 to 5 µM | CNC(=O)CCCCC[C@H](NC(=O)Cc1cn2ccsc2n1)c1ncc(-c2ccc3ccncc3c2)[nH]1 [Entry 168, (S)-7-(2-(imidazo[2,1-b]thiazol-6-yl)acetamido)-7-(5-(isoquinolin-7-yl)-1H-imidazol-2-yl)-N-methyl-heptanamide]
13 | < 1 µM | 1 to 5 µM | CNC(=O)CCCCC[C@H](NC(=O)Cn1cc2ccccc2n1)c1ncc(-c2ccc(-c3ccn(C)n3)cc2)[nH]1 [Entry 169, (S)-7-(2-(2H-indazol-2-yl)acetamido)-N-methyl-7-(5-(4-(1-methyl-1H-pyrazol-3-yl)phenyl)-1H-imidazol-2-yl)heptanamide]
14 | 1 to 5 µM | 1 to 5 µM | CNC(=O)CCCCC[C@H](NC(=O)C1CC1c1ccncc1)c1ncc(-c2ccc(-c3ccn(C)n3)cc2)[nH]1 (stereo partly drawn) [Entry 170, N-((S)-1-(5-(4-(1-methyl-1H-pyrazol-3-yl)phenyl)-1H-imidazol-2-yl)-7-(methylamino)-7-oxoheptyl)-2-(pyridin-4-yl)cyclopropane-carboxamide]
15 | > 5 µM | > 5 µM | CNC(=O)CCCCC[C@H](NC(=O)Cn1ccc(C)n1)c1ncc(-c2ccc(-c3ccn(C)n3)cc2)[nH]1 [Entry 171, (S)-N-methyl-7-(2-(3-methyl-1H-pyrazol-1-yl)acetamido)-7-(5-(4-(1-methyl-1H-pyrazol-3-yl)phenyl)-1H-imidazol-2-yl)heptanamide]
16 | 1 to 5 µM | < 1 µM | CNC(=O)CCCCC[C@H](NC(=O)c1cncs1)c1ncc(-c2ccc(-n3cccn3)cc2)[nH]1 [Entry 172, (S)-N-(1-(5-(4-(1H-pyrazol-1-yl)phenyl)-1H-imidazol-2-yl)-7-(methylamino)-7-oxoheptyl)thiazole-5-carboxamide]
17 | 1 to 5 µM | 1 to 5 µM | CNC(=O)CCCCC[C@H](NC(=O)c1cncs1)c1ncc(-c2ccc3cc[nH]c3c2)[nH]1 [Entry 173, (S)-N-(1-(5-(1H-indol-6-yl)-1H-imidazol-2-yl)-7-(methylamino)-7-oxoheptyl)thiazole-5-carboxamide]
18 | < 1 µM | 1 to 5 µM | COc1ccc2[nH]c(C)c(CC(=O)N[C@@H](CCCCCC(N)=O)c3nnc(-c4ccc5ccccc5c4)o3)c2c1 [Entry 174, (S)-7-(2-(5-methoxy-2-methyl-1H-indol-3-yl)acetamido)-7-(5-(naphthalen-2-yl)-1,3,4-oxadiazol-2-yl)heptanamide]
19 | < 1 µM | < 1 µM | CNC(=O)CCCCC[C@H](NC(=O)c1cccnc1)c1ncc(-c2ccc3ccccc3c2)[nH]1 [Entry 175, (S)-N-(7-(methylamino)-1-(5-(naphthalen-2-yl)-1H-imidazol-2-yl)-7-oxo-heptyl)nicotinamide]
20 | < 1 µM | 1 to 5 µM | CCN1CCCC(C(=O)N[C@@H](CCCCCC(=O)NC)c2ncc(-c3ccc4ccccc4c3)[nH]2)C1 (stereo partly drawn) [Entry 176, 1-ethyl-N-((S)-7-(methylamino)-1-(5-(naphthalen-2-yl)-1H-imidazol-2-yl)-7-oxo-heptyl)piperidine-3-carboxamide]
21 | 1 to 5 µM | > 5 µM | CNC(=O)CCCCC[C@H](NC(=O)CN(C)C)c1ncc(-c2cc3ccccc3nc2OC)[nH]1 [Entry 179, (S)-7-(2-(dimethyl-amino)acetamido)-7-(5-(2-methoxyquinolin-3-yl)-1H-imidazol-2-yl)-N-methylheptanamide]
22 | 1 to 5 µM | 1 to 5 µM | CNC(=O)CCCCC[C@H](NC(=O)CCn1cncn1)c1ncc(-c2cc3ccccc3nc2OC)[nH]1 [Entry 180, (S)-7-(3-(1H-1,2,4-triazol-1-yl)propanamido)-7-(5-(2-methoxyquinolin-3-yl)-1H-imidazol-2-yl)-N-methyl-heptanamide]

Row | SMILES | IC50 [1] | EC50 [2]
23 | CNC(=O)CCCCC[C@H](NC(=O)C12CCN(CC1)CC2)c1ncc(-c2cc3ccccc3nc2OC)[nH]1 [Entry 177, (S)-N-(1-(5-(2-methoxyquinolin-3-yl)-1H-imidazol-2-yl)-7-(methylamino)-7-oxo-heptyl)quinuclidine-4-carboxamide] | < 1 µM | < 1 µM
